The values below are quoted from earlier work in publication PMC13566764 (International Journal of Molecular Sciences, 2026).

On the set-up of the data set: method as in https://pubchem.ncbi.nlm.nih.gov. Conditions: ref https://pubchem.ncbi.nlm.nih.gov.

For the compound `O=C1NC(=O)C(c2ccccc2)(c2ccccc2)N1` [Phenytoin, phenytoin], the pKa (as a rule, the negative logarithm of the acid dissociation constant) is on record as 8.33.
